Reference: US10682341B2, “Method for treating obesity, diabetes, cardiovascular and kidney diseases by regulating GPR30/GPER activity” (STC.UNM, priority 2015, dated 2020)
“Also recorded” adds a separate entry of the source.

Columns and labels:
[1] = test system: ovariectomized female mice; experiment: Ovariectomized female mouse model of obesity and diabetes; assay type: in vivo; conditions: OVX females
Text: (§1) For females, an ovariectomized female mouse model, with ovary-intact control animals, fed a regular chow diet, was employed. Loss of the ovaries results in the loss of endogenous estrogenic protection towards metabolic pathophysiology and weight gain, resulting in increased overall weight gain, abdominal adiposity and ensuing metabolic (including glucose and lipid) dysfunction in ovariectomized mice compared to ovary-intact control animals. For males, the model employed involves diet-induced obesity. In the absence of the estrogenic protection as in female mice, male mice fed a high fat chow gain weight and suffer from metabolic pathophysiology compared to mice on normal chow. […].
(§2) For measurement of food intake, activity and energy expenditure, mice were placed in metabolic cages. All measurements were obtained using a computer-controlled indirect calorimetry system. Prior to data collection, mice were acclimatized in the chambers for 24 hours, after which data was collected for the subsequent 48 hours, including two complete light cycles (14 h) and two complete dark cycles (10 h). Oxygen consumption (VO2), carbon dioxide production (VCO2), activity and food consumption were measured for 48 hours. The animals had ad libitum access to standard rodent chow or high fat chow and water during the study. To detect ambulatory activity and position, beam breaks in all the three planes, X, Y and Z directions, were utilized to obtain total activity. To calculate oxygen consumption (VO2) and carbon dioxide production (VCO2) were assessed by measuring the gas concentrations at the inlet and outlet of the sealed chambers.
(§3) Post euthanasia, tissues (epididymal/perirenal fat, liver) were dissected and weighed. Tibia length was measured after clearing of soft tissue. For H&E staining, at sacrifice, tissues were fixed in buffered formalin for 24 hours and subsequently embedded in paraffin. Tissue sections (5 μm-thick) were stained with Hematoxylin and Eosin.
(§4) Prior to GTT and ITT, mice were fasted for 4 hours and basal glucose (0 min) was measured. Subsequently, mice were intraperitoneally injected with glucose (2 g/kg body weight) or insulin (0.5 U/kg body weight). After the injection, blood glucose was monitored at regular time intervals (15, 30, 60 and 120 min after injection) from tail nicks. Additionally, for measuring the fasting insulin, blood was collected from the tail nicks at 0 time point and plasma was separated and used for measuring the fasting insulin using a mouse Insulin ELISA kit. Blood glucose was monitored using a glucose meter.
(§5) Total RNA was extracted from frozen tissues (˜100 mg) or cultured cells using the RNeasy Mini Kit. Isolated RNA (˜100 ng) was used for cDNA synthesis using the ImProm-II™ Reverse Transcription System in a final reaction volume of 20 μL in a denaturation and extension cycle. Subsequently, quantitative real time PCR was carried out in a 7500 Fast Real-Time PCR System. Gene expression was normalized to 18S RNA as an internal reference and fold change over the control was calculated using the ddCt method. Quantitative real-time PCR analyses were performed in triplicate from a minimum of 5 separate animals.

[2] = test system: differentiated murine adipocytes; experiment: Mitochondrial biogenesis in differentiated murine adipocytes; assay type: cell-based, mouse
Method: (§6) Mouse fibroblasts, NIH 3T3-L1 cells were grown in DMEM with 10% FBS and subcultured before reaching 70% confluence. For differentiation, cells were seeded in 24 well plates or 60 mm dishes and allowed to grow till confluent. Subsequently medium was changed and cells were kept for additional two days before adding the differentiation cocktail in the medium (0.5 mM isomethylbutylxanthine, 1 μM dexamethasone and 10 μg/mL insulin) for 3 days (with or without GPER selective agonist G-1). The medium was then changed to the regular DMEM with FBS as above.

[3] = test system: AMP-activated protein kinase (AMPK); experiment: AMPK activation in differentiated murine adipocytes; assay type: cell-based, mouse
Method: as §6
Tissues were homogenized in RIPA buffer supplemented with sodium fluoride (50 mM), sodium orthovanadate (1 mM), phenylmethylsulfonylfluoride (1 mM), and protease cocktail. Protein amounts were quantified by Bradford method and equal amounts (30 μg) of protein were loaded for all the samples on 4-20% SDS-PAGE gel. Proteins were then transferred to polyvinylidene fluoride membrane, blocked with 3% newborn calf serum in TBST before overnight incubation with primary antibodies. Subsequently, blots were incubated with secondary HRP-conjugated antibodies and developed using SuperSignal West Pico Chemiluminescent Substrate. Blots were then scanned and quantified using ImageJ software.

3T3-L1 cells = experiment: Lipid accumulation in 3T3-L1 adipocytes (Oil Red O staining); assay type: cell-based, mouse; conditions: 3T3-L1 murine adipocytes, G-1 during differentiation
Method: as §6
(§7) Eight days after differentiation, adipocytes are briefly rinsed with PBS and fixed in 4% PFA for 30-60 min and washed with PBS. Freshly prepared Oil Red-O working solution was added to cells and incubated for ˜60 min at room temperature, washed t 3 times with PBS and air dried. Images were acquired or lipids extracted with isopropanol and absorbance at 520 nm to quantitate the lipids measured.

C2C12 cells = experiment: Glucose uptake in differentiated C2C12 myocytes; assay type: cell-based, mouse
Method: (§8) For human adipocytic differentiation, human preadipocytes were purchased from Zen-Bio and differentiated with or without GPER-selective agonist G-1. Mouse myoblasts, C2C12 were grown in low glucose DMEM with 10% FBS and subcultured before reaching 70-80% confluence. For differentiation into myocytes, cells were seeded on 12-well plates and at confluence were switched to DMEM containing 2% horse serum. The medium was changed every other day and cells were used for glucose uptake assay between 6-8 days post differentiation.
Differentiated C2C12 cells were washed twice with Krebs-Ringer phosphate buffer and incubated in serum free low glucose DMEM for 3 hours. Cells were then treated with 100 nM insulin for 15 min and subsequently incubated in Krebs-Ringer phosphate buffer containing […] of 2-deoxy-d-[^3H]glucose for 20 min. The reaction was terminated by adding ice-cold PBS on plates on ice. After three washes with PBS, the cells were dissolved in 0.1% sodium dodecyl sulfate and radioactivity was quantified by liquid scintillation counting. Nonspecific deoxyglucose uptake was measured in the presence of […] cytochalasin B and was subtracted from the total uptake to get specific glucose uptake.

human adipocytes = experiment: Lipid accumulation in human adipocytes (Oil Red O staining); assay type: cell-based; conditions: G-1 during differentiation
Method: as §8, §7

high fat diet male mice = experiment: Diet induced obesity (high fat diet) male mouse model; assay type: in vivo; conditions: HFD males
Text: as §1, §2, §3, §4

PPARγ and ap2 = experiment: Expression of adipogenic markers in 3T3-L1 cells; assay type: cell-based, mouse; conditions: 3T3-L1 cells differentiated in the presence of G-1
Method: as §6, §5

Compound: CC(=O)c1ccc2c(c1)C1C=CCC1C(c1cc3c(cc1Br)OCO3)N2 (centres unmarked) [G-1]
- adipocyte size in perigonadal fat (H&E staining) [1]: smaller adipocytes
- antioxidant markers in muscle and liver [1]: increases antioxidant markers
- fasting glucose levels [1]: lower fasting glucose levels; also recorded: decreases fasting blood glucose
- glucose tolerance (glucose tolerance test) [1]: improves glucose tolerance
- insulin sensitivity (insulin tolerance test) [1]: enhances insulin sensitivity
- total body weight ([1]; G-1 200 μg, 3 days per week, subcutaneously for 6 weeks vs vehicle): attenuates weight gain; also recorded: decrease in the total body weight
- weights of perigonadal fat pads ([1]; after 6 week treatment): decreased weights of perigonadal fat pads; also recorded: lower
- mRNA levels of pro-inflammatory, angiogenic and lipogenic markers in adipose tissue ([1]; gonadal fat, quantitative PCR): lower; also recorded: reduces inflammatory, angiogenic and lipogenic markers
- energy expenditure (O2 consumption) ([1]; metabolic cages): increase in O2 consumption; also recorded: increased energy expenditure
- pro-inflammatory and lipogenic markers in skeletal muscle and liver ([1]; quantitative PCR): decreased pro-inflammatory and lipogenic markers; also recorded: reduces lipogenic and inflammation
- mitochondrial biogenesis [2]: increased the mitochondrial biogenesis; also recorded: increases mitochondrial biogenesis
- AMPK activation [3]: activated AMP-activated protein kinase (AMPK); also recorded: activates AMPK
- lipid accumulation (3T3-L1 cells): decreased lipid accumulation; also recorded: inhibits lipid accumulation
- cellular uptake of glucose (C2C12 cells): increased the cellular uptake of glucose; also recorded: increases glucose uptake
- lipid accumulation (human adipocytes): decreased lipid accumulation; also recorded: inhibits lipid accumulation
- fasting glucose levels (high fat diet male mice): lower fasting glucose levels; also recorded: decreases fasting blood glucose
- glucose tolerance (glucose tolerance test) (high fat diet male mice): improves glucose tolerance
- insulin sensitivity (insulin tolerance test) (high fat diet male mice): improved insulin sensitivity; also recorded: enhances insulin sensitivity
- total body weight (high fat diet male mice; G-1 200 μg, 5 days per week, subcutaneously for 8 weeks vs vehicle): attenuates weight gain; also recorded: decrease in the total body weight
- liver weights (high fat diet male mice; after 8 week treatment): significant decrease in liver weights; also recorded: lower
- perirenal adipose fat pad weights (high fat diet male mice; after 8 week treatment): significant decrease; also recorded: lower
- energy expenditure (O2 consumption) (high fat diet male mice; metabolic cages): increase in O2 consumption; also recorded: increased energy expenditure
- expression of adipogenic markers PPARγ and ap2 (PPARγ and ap2): lower levels of adipogenic markers; also recorded: down regulates
